In brackets after ≈: the same amount, converted by molar mass. Read-outs that look alike come from different tables or passages of the source. Blank lines part the entries; values can stand above or below the molecule they belong to.
Assays:
[1] = Molecular weight distribution by gel permeation chromatography; type: physicochemical; details: dissolved in water
Description: The molecular weight distribution (MWD) of the samples was investigated by gel permeation chromatography (GPC) on the Agilent 1200 chromatograph with column PL aquel-OH 40 (Santa Clara, CA), 300 × 7.5 mm column at 30 °C with refractometric detector. The solvent used was 0.02% NaN3 aqueous solution and flow rate was 1 mL/min. The calibration was performed by standard dextrans with molecular weights of 1, 5, 12, 25, 80, 150, 270, and 410 kDa. Agilent GPC data analysis program was used to process the results (Santa Clara, CA).

[2] = test system: immortalized human fibroblasts; experiment: MTT cytotoxicity test, immortalized human fibroblasts; type: cell-based; details: for Viability: 48 h
Description: (§1) Cancer cell lines U-87 MG (glioblastoma) and MCF-7 (breast cancer) were obtained from the ATCC (ATCC number HTB-14 and HTB-22, respectively). Immortalized human fibroblasts used as normal cells were kindly provided by Alexander G. Shilov (Institute of Cytology and Genetics SB RAS). The cells were maintained in DMEM plus 10% FBS, under a temperature of 37 °C, atmosphere of 5% of CO2 and 90% humidity.
(§2) MTT test was performed according to a standard procedure (Mosmann, [1983]). Cells were seeded in a 96-well plate at a density of 5 × 10^3 cells/well and after 24 h of adherence, the cells were treated with different concentration of test compounds and incubated for 48 h at 37 °C in an atmosphere of 5% CO2 in air. Untreated cells were used as negative control and doxorubicin was used as a positive control. After the incubation period, 10 μL MTT solution (3 mg/mL of PBS) was added to each well followed by incubation for 3 h under the condition mentioned above. Then, the MTT-containing medium was removed and the formazan crystals were dissolved with 100 μL of isopropanol. Absorbance was measured at 630 and 492 nm using a microplate reader (Thermo Scientific, Waltham, MA). The cell viability percentage was calculated using the following formula: Viability (%)=OD (treated cells)/OD (untreated cells) × 100, where OD was an optical density of solution.

MCF-7 cells = experiment: MTT cytotoxicity test, MCF-7; type: cell-based, human; details: for Viability: 48 h
Description: as §1, §2

U-87 MG cells = experiment: MTT cytotoxicity test, U-87 MG; type: cell-based, human
Description: as §1, §2

[3] = cited from earlier work
[4] = Solubility determination in distilled water (HPLC); type: physicochemical; details: +37 °C
Description: The amount of Cur was determined by using a high performance liquid chromatography (HPLC) system (Agilent 1200, Santa Clara, CA) with column Zorbax Eclipse XDB-C18, 4.6 × 50 mm at +30 °C and diode-array detector. Acetonitrile–acetate buffer (55:45) was used as eluent (pH = 3.4) with flow rate of 1.0 mL/min, and detection wavelength was 430 nm. […] At last, sample solutions were filtered and analyzed by HPLC.

[5] = parameters: method as in Priyadarsini, 2014; details: acidic and neutral pH; ref Priyadarsini, 2014; cited from earlier work
[6] = Oral pharmacokinetic (bioavailability) study in rats; type: in vivo; details: male, Sprague Dawley; rat plasma, single oral dose 150 mg/kg Cur
Description: The pharmacokinetic study was carried out in male Sprague Dawley rats (10 weeks of age, 250–260 g body weight, provided by the Zhejiang Academy of Medical Science, Hangzhou, China). All animal (used in this experiment) handling procedures were performed in strict compliance with the PR China legislation for the use and care of laboratory animals and were approved by the University Committee for Animal Experiments. The animals were fasted overnight (12 h) and had free access to drinking water throughout the experimental period. […] To evaluate the concentration of Cur in plasma, blood was collected into heparinized Eppendroff tubes at different time points: 0.083, 0.25, 0.5, 1, 2, 4, 6, 8, 12, and 24 h post-dosing and centrifuged (Sigma Laboratory Centrifuge, Model 3K-30, Osterode am Harz, Germany) at 9391 × g for 5 min to separate the plasma. The plasma samples were stored at –80 °C until further analysis.
A 100 μL aliquot of plasma was transferred to a clean microcentrifuge tube and next treated with 100 μL of a solution containing 1000 U of β-glucuronidase in 0.1 M phosphate buffer (pH 6.8). The resulting mixture was then thoroughly vortexed and incubated at 37 °C for 1 h to hydrolyze the conjugated Cur. After incubation, 0.1 mL acetonitrile was added to 0.1 mL of plasma and centrifuged (Sigma Laboratory Centrifuge, Model3K-30, Osterode am Harz, Germany) at 9391 × g for 15 min, and then the supernatant was subjected to be analyzed by HPLC.
Standard pharmacokinetic parameters for free Cur and Cur SDs were calculated by linear trapezoidal method using the PKSolver, a freely available menu-driven add-in program for Microsoft Excel. The results were presented as mean ± standard error of the mean (SEM). One-way analysis of variance (ANOVA) was followed by Dunnett’s test for multiple comparisons statistical evaluation. p Values <.05 were considered significant.

Molecular weight of micelles formed in water [1]: 85–90 kDa
Compound: CC1(C)[C@@H](O[C@H]2O[C@H](C(=O)[O-])[C@@H](O)[C@H](O)[C@H]2O[C@@H]2O[C@H](C(=O)O)[C@@H](O)[C@H](O)[C@H]2O)CC[C@]2(C)[C@H]3C(=O)C=C4[C@@H]5C[C@@](C)(C(=O)[O-])CC[C@]5(C)CC[C@@]4(C)[C@]3(C)CC[C@@H]12.[Na+].[Na+] [Na2GA, disodium glycyrrhizin]
Viability ([2]; 25 μM): 96.2 ± 2.78%
Viability ([2]; 50 μM): 97.3 ± 1.73%
Viability ([2]; 100 μM): 98.8 ± 4.18%
Viability ([2]; 200 μM): 96.0 ± 1.66%
Viability ([2]; 400 μM): 98.3 ± 0.90%
Cytotoxicity ([2]; 25–400 μM): no cytotoxicity
Viability (MCF-7 cells; MCF-7, 25 μM): 98.2 ± 2.13%
Viability (MCF-7 cells; MCF-7, 50 μM): 97.8 ± 3.33%
Viability (MCF-7 cells; MCF-7, 100 μM): 98.2 ± 0.41%
Viability (MCF-7 cells; MCF-7, 200 μM): 98.7 ± 1.59%
Viability (MCF-7 cells; MCF-7, 400 μM): 99.6 ± 1.34%
Cytotoxicity (MCF-7 cells; MCF-7, 25–400 μM): no cytotoxicity
Viability (U-87 MG cells; 25 μM, 48 h): 96.6 ± 2.39%
Viability (U-87 MG cells; 50 μM, 48 h): 95.9 ± 1.16%
Viability (U-87 MG cells; 100 μM, 48 h): 92.2 ± 2.75%
Viability (U-87 MG cells; 200 μM, 48 h): 92.2 ± 2.63%
Viability (U-87 MG cells; 400 μM, 48 h): 92.9 ± 1.65%
Cytotoxicity (U-87 MG cells; 25–400 μM): no cytotoxicity

Compound: CC1(C)[C@@H](O[C@H]2O[C@H](C(=O)O)[C@@H](O)[C@H](O)[C@H]2O[C@@H]2O[C@H](C(=O)O)[C@@H](O)[C@H](O)[C@H]2O)CC[C@]2(C)[C@H]3C(=O)C=C4[C@@H]5C[C@@](C)(C(=O)O)CC[C@]5(C)CC[C@@]4(C)[C@]3(C)CC[C@@H]12 [GA, Glycyrrhizic acid]
Molecular weight of micelles formed in water ([3]; dissolved in water, ref Dushkin & Tolstikova, 2012): 66 kDa
Critical micelle concentration ([3]; ref Kornievskaya et al., 2007, Polyakov, 2011): ~1 mM

solubility at 12 h [4]: 1.73 µg/mL (≈ 4.7 µM)
AUC(0-inf) [6]: 14300 ± 720 ng·h/mL
AUC(0-t) [6]: 12100 ± 360 ng·h/mL
Cmax [6]: 1480 ± 30 ng/mL
Tmax [6]: 0.25 h
half-life [6]: 5.07 ± 0.41 h
Compound: COc1cc(/C=C/C(=O)CC(=O)/C=C/c2ccc(O)c(OC)c2)ccc1O [Free Cur, Curcumin]
Solubility in water [5]: practically insoluble
Mean cell survival (U-87 MG cells; Cur concentration range 25–100 μM, 48 h): above 80%

Reference: PMC6058497 (Drug Delivery, 2018)
